Assay results as given in patent publication EP0033980A1, “Derivatives of 2-methylpropionic acid, process for their preparation and pharmaceutical compositions containing them” (SCHIAPPARELLI FARMACEUTICI S.p.A., priority 1980, dated 1981).

Tested on: Triglycerid- und Cholesteringehaltes im Blut
Assay: Reduction of blood triglyceride and cholesterol content after 10 days of daily peroral treatment, versus untreated controls
Format: in vivo
Details: Ratten, 10 Tage, vs. Blindversuche
Text: Diese Wirkungen wurden gegenüber der in der Therapie der Hyperlipidämie (übermäßiger Lipidgehalt im Blut) und Hypercholesterinämie (übermäßiger Cholesteringehalt im Blut) verbreitet angewandten und anerkannt gut wirksamen bekannten Vergleichssubstanz 2-(4'-Chlorphenoxy)-2-me- thylpropionsäure [Clofibrat] bestimmt.
Es wurden vorherbestimmte tägliche Dosen einer erfin-dungsgemäßen Verbindung Laboratoriumstieren (üblicherweise in Gruppen von je 6 Tiere unterteilten Ratten) peroral verabreicht, während die Vergleichssubstanz 2-(4'-Chlor- phenoxy)-2-methylpropionsäure [Clofibrat] in einser Dosis von 130 mg/kg/Tag ebenfalls peroral verabreicht wurde. Die Behandlung wurde 10 Tage fortgesetzt, dann wurden die Tiere geopfert und ihr Blut wurde gesammelt und der Bestimmung seines Triglycerid- und Cholesteringehaltes unterzogen. Die erhaltenen Ergebnisse, ausgedrückt als prozentuale Verminderung des Triglycerid- und Cholesteringehaltes im Blut (prozentuale Hemmung der Bildung des Triglycerid- und Cholesteringehaltes im Blut) gegenüber den Blindversuchen (das heißt den Ratten, welchen weder eine erfindungsgemäße Verbindung noch die Vergleichssubstanz verabreicht wurde), sind in der folgenden Tabelle zusammengestellt.

CCOC(=O)C(C)(C)Oc1ccc(-c2ccc(F)cc2F)cc1 [Beispiel 2, 2-(2",4"-Difluordiphenyl-4'-yloxy)-2--methylpropionsäureäthylester]
Verminderung des Cholesteringehaltes in % (peroral, 35 mg/kg/Tag): 23%
Verminderung des Triglyceridgehaltes in % (peroral, 35 mg/kg/Tag): 36%
Verminderung des Cholesteringehaltes in % (peroral, 50 mg/kg/Tag): 30%
Verminderung des Triglyceridgehaltes in % (peroral, 50 mg/kg/Tag): 29%
Verminderung des Cholesteringehaltes in % (peroral, 2,5 mg/kg/Tag): 11%
Verminderung des Triglyceridgehaltes in % (peroral, 2,5 mg/kg/Tag): 22%
